According to the NIST ThermoML archive (doi:10.1016/j.jct.2004.11.023):
Numbers after ± are expanded uncertainties.

Test: xn = mol fraction of the nth substance listed
Conditions: 101 kPa, Liquid, Vibrating tube method

Cc1cc(C)cc(C)c1 [1,3,5-trimethylbenzene] + CC(=O)c1ccccc1
x1 = 1
Conditions	mass density [kg/m3]
298.15 K	861.13 ± 0.44
328.15 K	836.63 ± 0.43

CC(=O)c1ccccc1 [acetophenone] + Cc1cc(C)cc(C)c1
mass density [kg/m3]
Conditions	298.15 K	328.15 K
x2 = 0	1023.13 ± 0.52	996.99 ± 0.51
x2 = 0.09015	1006.63 ± 0.51	980.65 ± 0.5
x2 = 0.185	989.75 ± 0.5	963.9 ± 0.49
x2 = 0.2674	975.43 ± 0.5	949.71 ± 0.48
x2 = 0.358	960.07 ± 0.49	934.46 ± 0.48
x2 = 0.4569	943.72 ± 0.48	918.28 ± 0.47
x2 = 0.5358	930.98 ± 0.48	905.65 ± 0.46
x2 = 0.6409	914.41 ± 0.47	889.25 ± 0.46
x2 = 0.7322	900.4 ± 0.46	875.38 ± 0.45
x2 = 0.836	884.84 ± 0.45	860 ± 0.44
x2 = 0.8961	876.03 ± 0.45	851.31 ± 0.44

CC(=O)c1ccccc1 [acetophenone] + Cc1ccccc1
mass density [kg/m3]
Conditions	298.15 K	328.15 K
x2 = 0	1023.12 ± 0.52	997.01 ± 0.51
x2 = 0.1016	1008.8 ± 0.48	982.57 ± 0.46
x2 = 0.1982	994.83 ± 0.44	968.48 ± 0.43
x2 = 0.257	986.17 ± 0.41	959.73 ± 0.4
x2 = 0.3576	971 ± 0.37	944.41 ± 0.36
x2 = 0.453	956.2 ± 0.33	929.46 ± 0.33
x2 = 0.5369	942.81 ± 0.3	915.9 ± 0.3
x2 = 0.6366	926.48 ± 0.27	899.39 ± 0.26
x2 = 0.7154	913.19 ± 0.24	885.89 ± 0.24
x2 = 0.8198	895.09 ± 0.21	867.55 ± 0.21
x2 = 0.9019	880.36 ± 0.18	852.62 ± 0.18

Cc1ccccc1 [toluene] + CC(=O)c1ccccc1
x1 = 1
Conditions	mass density [kg/m3]
298.15 K	862.27 ± 0.16
328.15 K	834.26 ± 0.16

CC(=O)c1ccccc1 [acetophenone] + c1ccccc1
mass density [kg/m3]
Conditions	298.15 K	328.15 K
x2 = 0	1023.11 ± 0.52	997 ± 0.51
x2 = 0.1057	1011.02 ± 0.48	984.62 ± 0.46
x2 = 0.186	1001.34 ± 0.44	974.7 ± 0.43
x2 = 0.2855	988.94 ± 0.4	961.91 ± 0.39
x2 = 0.3792	976.58 ± 0.37	949.15 ± 0.36
x2 = 0.4626	964.98 ± 0.33	937.16 ± 0.33
x2 = 0.5484	952.49 ± 0.3	924.19 ± 0.3
x2 = 0.6248	940.71 ± 0.27	911.99 ± 0.27
x2 = 0.7289	923.84 ± 0.24	894.3 ± 0.23
x2 = 0.8003	911.56 ± 0.22	881.44 ± 0.21
x2 = 0.8953	894.23 ± 0.19	863.18 ± 0.19

c1ccccc1 [benzene] + CC(=O)c1ccccc1
x1 = 1
Conditions	mass density [kg/m3]
298.15 K	873.64 ± 0.16
328.15 K	841.51 ± 0.16

Cc1cccc(C)c1 [1,3-dimethylbenzene] + CC(=O)c1ccccc1
x1 = 1
Conditions	mass density [kg/m3]
298.15 K	859.88 ± 0.44
328.15 K	834.12 ± 0.43

CC(=O)c1ccccc1 [acetophenone] + Cc1cccc(C)c1
mass density [kg/m3]
Conditions	298.15 K	328.15 K
x2 = 0	1023.12 ± 0.52	996.98 ± 0.51
x2 = 0.09263	1007.97 ± 0.51	981.88 ± 0.5
x2 = 0.1807	993.62 ± 0.5	967.52 ± 0.49
x2 = 0.2662	979.65 ± 0.5	953.61 ± 0.49
x2 = 0.3566	964.94 ± 0.49	938.89 ± 0.48
x2 = 0.4525	949.31 ± 0.48	923.26 ± 0.47
x2 = 0.538	935.34 ± 0.48	909.32 ± 0.47
x2 = 0.6252	921.13 ± 0.47	895.13 ± 0.46
x2 = 0.7339	903.38 ± 0.46	877.43 ± 0.45
x2 = 0.8479	884.76 ± 0.45	858.85 ± 0.44
x2 = 0.8943	877.15 ± 0.45	851.29 ± 0.44
